In ChEMBL document CHEMBL1130907, “The novel cyclopropapyrroloindole(CPI) bisalkylators bearing 3,3'-(1,4-phenylene)diacryloyl group as a linker” (Bioorg Med Chem Lett, 1998) one finds IC50, TGI50 and Ratio data, which are given here for eight molecules.

A word on the IC50: it is the concentration that inhibits the measured activity by half.

Converted amounts (≈) assume the structure as drawn.

Assay [1] has as its system HeLa. Put plainly: In vitro cytotoxicity against HeLaS3 human uterine cervix carcinoma. It counts as functional, cell-based.
Assay [2] concerns Mus musculus. Put plainly: In vivo antitumor activity against colon 26 murine adenocarcinoma in male CDF1 mice and was expressed as 50% tumor growth inhibition. It counts as functional.
The nature of assay [3]: Ratio of MTD, maximum dose with in 10% body weight loss (ug/Kg) to that of TGI50 was reported. It counts as functional.
Assay [4] concerns HeLa. Put plainly: In vitro cytotoxicity against HeLaS3 human uterine cervix carcinoma. It counts as functional, cell-based.
Where [5] appears, read: Homo sapiens, HeLa, read-out: IC50.

Consider `COC(=O)c1cc2c3c(cc(O)c2[nH]1)N(C(=O)/C=C/c1ccc(/C=C/C(=O)N2C[C@H](CCl)c4c2cc(O)c2[nH]c(C(=O)OC)cc42)cc1)C[C@H]3CCl`, for which the IC50 in assay [1] (setting [5]) was found to be 0.023 ng/mL (≈ 0.0309 nM). For the same molecule, the TGI50 in assay [2] stood at 100 µg/kg.
In turn, `COC(=O)c1c[nH]c2c(O)cc3c(c12)[C@H](CCl)CN3C(=O)/C=C/c1ccc(/C=C/C(=O)N2C[C@H](CCl)c3c2cc(O)c2[nH]cc(C(=O)OC)c32)cc1` gave a TGI50 in assay [2] of 0.757 µg/kg. The Ratio in assay [3] came to 10.3. Moreover, the IC50 in assay [4] amounted to 0.00035 ng/mL (≈ 0.000471 nM).
Regarding `COC(=O)c1c(C(F)(F)F)[nH]c2c(O)cc3c(c12)[C@H](CCl)CN3C(=O)/C=C/c1ccc(/C=C/C(=O)N2C[C@H](CCl)c3c2cc(O)c2[nH]c(C(F)(F)F)c(C(=O)OC)c32)cc1`, the IC50 in assay [1] (hela) was determined as 0.0027 ng/mL (≈ 0.00307 nM). The molecule further showed a TGI50 in assay [2] of 0.254 µg/kg. Moreover, the Ratio in assay [3] was found to be 30.7.
The like results for `COC(=O)c1c(C(F)(F)F)[nH]c2c(O)cc3c(c12)[C@H](CCl)CN3C(=O)c1cc2cc(-c3ccc4[nH]c(C(=O)N5C[C@@H](CCl)c6c5cc(O)c5[nH]c(C(F)(F)F)c(C(=O)OC)c65)cc4c3)ccc2[nH]1` were, in that order, 0.0049 ng/mL (≈ 0.00499 nM), 0.3 µg/kg and 3.3.
The like results for `Cc1c[nH]c2c(O)cc3c(c12)[C@H](CCl)CN3C(=O)/C=C/c1ccc(/C=C/C(=O)N2C[C@H](CCl)c3c2cc(O)c2[nH]cc(C)c32)cc1` were, in that order, 0.0013 ng/mL (≈ 0.00198 nM), 1.41 µg/kg and 5.5.
As for `O=C(/C=C/c1ccc(/C=C/C(=O)N2C[C@H](CCl)c3c2cc(O)c2[nH]c4ccccc4c32)cc1)N1C[C@@H](CCl)c2c1cc(O)c1[nH]c3ccccc3c21`, in assay [1] (setting [5]), the IC50 turned out to be 0.072 ng/mL (≈ 0.0989 nM). In assay [2], the TGI50 turned out to be 3.8 µg/kg. In addition, the Ratio in assay [3] is 8.2.
For the molecule `COC(=O)c1c(C)[nH]c2c(O)cc3c(c12)[C@H](CCl)CN3C(=O)/C=C/c1ccc(/C=C/C(=O)N2C[C@H](CCl)c3c2cc(O)c2[nH]c(C)c(C(=O)OC)c32)cc1`, the TGI50 in assay [2] stood at 0.891 µg/kg. The Ratio in assay [3] was determined as 8.8. In assay [4], the IC50 was 0.00046 ng/mL (≈ 0.000596 nM).
In turn, `Cc1c[nH]c2c(O)cc3c(c12)[C@H](CCl)CN3C(=O)c1cc2cc(NC(=O)Nc3ccc4[nH]c(C(=O)N5C[C@@H](CCl)c6c5cc(O)c5[nH]cc(C)c65)cc4c3)ccc2[nH]1` [BIZELESIN] yielded a TGI50 in assay [2] of 3.72 µg/kg. Moreover, in assay [3], the Ratio was found to be 8.4.
